Like-named read-outs stand apart in the source and are kept apart here.
Legend:
[1] = tested on: pancreatic cancer MIA PaCa-2 cells; experiment: cells; details: for EC50 / CC50: Homo sapiens; for EC50: MIA PaCa-2, read-out: EC50, μM MIA PaCa-2; for CC50: MIA PaCa-2, read-out: LC50 MIA PaCa-2
Protocol: Fig 1 A, Structure of NSC130362. B, Dose response curve of NSC130362 in MIA PaCa-2 cells. Cells were pre-incubated with NSC130362 for 2 h followed by addition of ATO (5 μM) and incubation for an additional 24 h. At the end of the treatment, the ratio of dead cells was determined by a CellTiterGlo reagent.

[2] = tested on: hepatocytes; experiment: Hydrogen peroxide cell-based assay (ROS induction), hepatocytes; set-up: species or system Human; details: 30 μM; hydrogen peroxide level relative to DMSO-treated cells (100%)
Protocol: Cells were incubated for 2 h with either compounds (30 μM) or DMSO in a 96-well plate. After the treatment, 80 μl of cell culture medium was collected and the level of hydrogen peroxide was determined using a Hydrogen Peroxide Cell-Based Assay kit (Cayman).
Cells were incubated with the compounds for 4 h and the level of ROS induction was measured by a hydrogen peroxide cell-based assay kit. Compounds were assayed at a fixed concentration of 30 μM and the measured level of hydrogen peroxide was expressed as percentage in relation to DMSO-treated cells (100%). […] This distinction was more evident for compounds with the highest selective cytotoxicity index. […] We conclude that the selective induction of ROS in cancer cells is required but not sufficient factor for the selective anti-tumor activity.

[3] = tested on: Recombinant NADH/NADPH dehydrogenase; experiment: NADH/NADPH dehydrogenase-mediated ROS generation assay; type: biochemical; details: 30 μM, 4 h at 37°C; for H2O2 generation, NADH/NADPH dehydrogenase -: absence of NADH/NADPH dehydrogenase; for H2O2 generation, NADH/NADPH dehydrogenase +: presence of NADH/NADPH dehydrogenase
Protocol: Recombinant NADH/NADPH dehydrogenase (0.5 units/well) in a 96-well plate was incubated in 100 μl of the assay buffer (50 mM potassium phosphate buffer, pH 7.5 supplemented with 1 mM EDTA) containing NADPH (3 μM) and superoxide dismutase (SOD) (100 units/well) with and without compound (30 μM) for 4 h at 37°C. At the end of incubation, the level of hydrogen peroxide was measured using a Hydrogen Peroxide Assay kit (Cayman). Control samples were without NADH/NADPH dehydrogenase. The rate of NADH/NADPH dehydrogenase- and compound-mediated ROS production was determined by subtracting values that were obtained in the absence of NADPH dehydrogenase. One unit of NADH/NADPH dehydrogenase was defined as the amount of enzyme required to reduce 1.0 μmole cytochrome C per min/mg in the presence of menadione substrate at 37°C. One unit of SOD was defined as the amount of enzyme required to inhibit reduction of cytochrome C by 50% in a coupled system with xanthine oxidase at pH 7.8 at 25°C in a 3.0 mL reaction volume. Xanthine oxidase concentration should produce an initial ΔA550 of 0.025 ± 0.005 per min.
As the next step, we examined the capability of the selected compounds to generate ROS in the presence or absence of NADH/NADPH dehydrogenase (Table 1). ROS can be generated by NADH/NADPH-dehydrogenase via the one electron reduction of a quinone ring of 1,4-NQs. Unstable half-reduced quinones (semiquinones) transfer electrons to molecular oxygen, thus generating superoxide anion radicals (O2^●-), which are converted by SOD to hydrogen peroxide. We believe that our assay measuring compound’s ability to generate H2O2 in the presence or absence of NADH/NADPH dehydrogenase more closely resembles conditions inside the cell than the assay designed to measure compound’s redox potential values. […] To determine the ability of compounds to induce ROS, compounds were incubated for 4 h at 37°C with and without NADH/NADPH-dehydrogenase in the presence of NADPH as an electron donor and SOD to convert generated superoxide radicals into hydrogen peroxide. At the end of incubation, 10-acetyl-3,7-dihydroxyphenoxazine (ADHP) and horseradish peroxidase (HRP) were added to the reaction and the level of HRP-mediated formation of the fluorogenic product, resorufin, was measured on a plate reader. ROS production was detected in reactions with either the toxic or non-toxic compounds.

[4] = target: T1, human GAPDH enzyme (Homo sapiens, UniProt P04406); experiment: GAPDH activity assay in MIA PaCa-2 cells; type: cell-based; details: 2 h; for remaining activity at 30 µM: read-out: GAPDH, enzyme residual activity as compared to DMSO-treated sample; for inhibition of GAPDH: 30 μM
T1 construct: endogenous in cells; host or cells: MIA PaCa-2 cells
T1 sequence (P04406 whole entry): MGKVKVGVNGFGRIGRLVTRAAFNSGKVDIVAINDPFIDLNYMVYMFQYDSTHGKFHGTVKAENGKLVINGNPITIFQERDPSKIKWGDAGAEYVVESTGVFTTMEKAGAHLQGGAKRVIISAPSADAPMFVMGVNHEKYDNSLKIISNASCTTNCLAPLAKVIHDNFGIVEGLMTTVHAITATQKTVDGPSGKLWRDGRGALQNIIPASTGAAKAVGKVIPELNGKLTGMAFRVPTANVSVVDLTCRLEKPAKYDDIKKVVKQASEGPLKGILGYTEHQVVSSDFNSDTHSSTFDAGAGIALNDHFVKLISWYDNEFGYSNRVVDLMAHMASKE
Protocol: Cells were incubated for 2 h with either compounds (30 μM) or DMSO in a 6-well plate. Next, cells were collected in 200 μl of PBS and disrupted by sonication. Insoluble material was removed by centrifugation. The level of GAPDH activity was determined by GAPDH activity assay kit (BioVision).
As a final step, we evaluated the inhibitory activity of the selected compounds against human GAPDH enzyme in a cell-based assay using MIA PaCa-2 cells (Table 1). Cells were pre-incubated with compounds for 2 h at 37°C followed by cell lysis using sonication and GAPDH activity assay. The ability of compounds to inhibit GAPDH was expressed as percentage of GAPDH residual activity with respect to DMSO-treated cells. […] Similar to the GSR activity assay, only two of the most toxic compounds 31 and 32, were able to inhibit GAPDH by 95 and 97%, respectively.

[5] = Distribution coefficient LogD; type: physicochemical; details: pH 7.4
Description: We conclude that the analysis of the octanol-water partitioning is not sufficient to establish a link between degree of lipophilicity and biological activities of the selected compounds.

[6] = tested on: human primary hepatocytes
Description: We selected hepatocytes as normal cells because hepatocytes are mediate toxicity to multiple drugs and are used as a standard to assess toxicity of drugs in vitro [28]. […] For comparison with the standard of care, doxorubicin was also included in this analysis.

[7] = octanol/water, read-out: LogD, pH = 7.4

SMILES: O=C1C(Cl)=C(NCCc2ccccc2)C(=O)c2ccccc21 [compound 36]
- EC50 [1]: 16.2 µM
- CC50 [1]: 16.2 µM
- ROS increase, % Hepatocytes [2]: 178%
- H2O2 generation, NADH/NADPH dehydrogenase - [3]: 7.0 µM
- H2O2 generation, NADH/NADPH dehydrogenase + [3]: 6.3 µM
- remaining activity at 30 µM [4]: 97%
- logD [5, 7]: 0

SMILES: CC1=C(N2CC2)C(=O)c2ccccc2C1=O [compound 55]
- EC50 [1]: 3.1 µM
- CC50 [1]: 3.1 µM
- increase in anti-cancer activity ([1]; versus compound 15): 2 fold
- H2O2 generation, NADH/NADPH dehydrogenase - [3]: 2.1 µM
- H2O2 generation, NADH/NADPH dehydrogenase + [3]: 3.3 µM
- remaining activity at 30 µM [4]: 100%
- logD [5]: 0.12
- reduction in toxicity to hepatocytes ([6]; versus compound 15): more than 10 fold

SMILES: COC1=C(N2CC2)C(=O)c2ccccc2C1=O [compound 54]
- EC50 [1]: 7.5 µM
- CC50 [1]: 7.5 µM
- H2O2 generation, NADH/NADPH dehydrogenase - [3]: 2.4 µM
- H2O2 generation, NADH/NADPH dehydrogenase + [3]: 3.9 µM
- remaining activity at 30 µM [4]: 73%
- logD [5]: 0.31

SMILES: CCCCOCCCNC1=C(Cl)C(=O)c2ccccc2C1=O [compound 26]
- EC50 [1]: 26.6 µM
- CC50 [1]: 26.6 µM
- ROS increase, % Hepatocytes [2]: 191%
- H2O2 generation, NADH/NADPH dehydrogenase - [3]: 5.9 µM
- H2O2 generation, NADH/NADPH dehydrogenase + [3]: 3.8 µM
- remaining activity at 30 µM [4]: 94%
- logD [5, 7]: 0

SMILES: NC1=C(Cl)C(=O)c2ccccc2C1=O [compound 1, 2-chloro-3-amino-1,4-NQ]
- EC50 [1]: 8.4 µM
- CC50 [1]: 8.4 µM
- ROS increase, % Hepatocytes [2]: 156%
- H2O2 generation, NADH/NADPH dehydrogenase - [3]: 4.1 µM
- H2O2 generation, NADH/NADPH dehydrogenase + [3]: 7.6 µM
- remaining activity at 30 µM [4]: 100%
- logD [5, 7]: 2.01

SMILES: O=C1C(Cl)=C(Nc2nccs2)C(=O)c2ccccc21 [compound 38]
- EC50 [1]: > 90 µM
- ROS increase, % Hepatocytes [2]: 100%
- H2O2 generation, NADH/NADPH dehydrogenase - [3]: 1.9 µM
- H2O2 generation, NADH/NADPH dehydrogenase + [3]: 2.7 µM
- remaining activity at 30 µM [4]: 100%
- logD [5, 7]: 0.1

SMILES: CCCCC(=O)NC1=C(Cl)C(=O)c2ccccc2C1=O [compound 32]
- EC50 [1]: 10.2 µM
- CC50 [1]: 10.2 µM
- ROS increase, % Hepatocytes [2]: 249%
- H2O2 generation, NADH/NADPH dehydrogenase - [3]: 6.3 µM
- H2O2 generation, NADH/NADPH dehydrogenase + [3]: 10.6 µM
- inhibition of GAPDH [4]: almost completely inhibited GAPDH
- inhibition at 30 µM [4]: 97%
- remaining activity at 30 µM [4]: 3%
- logD [5, 7]: 2.79

SMILES: O=C1C(Cl)=C(Nc2ccccc2)C(=O)c2ccccc21 [compound 39]
- EC50 [1]: 3.9 µM
- CC50 [1]: 3.9 µM
- reduced anti-cancer activity ([1]; versus compound 1): 8 fold
- ROS increase, % Hepatocytes [2]: 174%
- H2O2 generation, NADH/NADPH dehydrogenase - [3]: 1.6 µM
- H2O2 generation, NADH/NADPH dehydrogenase + [3]: 2.8 µM
- remaining activity at 30 µM [4]: 93%
- logD [5, 7]: 0.13

SMILES: CC1CN1C1=C(Cl)C(=O)c2ccccc2C1=O (stereo not shown) [compound 16]
- EC50 [1]: 6.9 µM
- CC50 [1]: 6.9 µM
- H2O2 generation, NADH/NADPH dehydrogenase - [3]: 2.1 µM
- H2O2 generation, NADH/NADPH dehydrogenase + [3]: 3.8 µM
- remaining activity at 30 µM [4]: 100%
- logD [5]: 0.7
- toxicity against normal cells ([6]; hepatocytes, in words): completely non-toxic against normal cells

SMILES: CCCCCCCNC1=C(Cl)C(=O)c2ccccc2C1=O [compound 8]
- EC50 [1]: > 90 µM
- CC50 [1]: > 90 µM
- ROS increase, % Hepatocytes [2]: 115%
- H2O2 generation, NADH/NADPH dehydrogenase - [3]: 2.0 µM
- H2O2 generation, NADH/NADPH dehydrogenase + [3]: 2.8 µM
- remaining activity at 30 µM [4]: 100%
- logD [5, 7]: 0.17

SMILES: Cc1ccccc1NC1=C(Cl)C(=O)c2ccccc2C1=O [compound 40]
- EC50 [1]: 78.5 µM
- CC50 [1]: 78.5 µM
- ROS increase, % Hepatocytes [2]: 122%
- H2O2 generation, NADH/NADPH dehydrogenase - [3]: 5.0 µM
- H2O2 generation, NADH/NADPH dehydrogenase + [3]: 2.9 µM
- remaining activity at 30 µM [4]: 88%
- logD [5, 7]: 0

SMILES: COC1=C(N(C)C)C(=O)c2ccccc2C1=O [compound 53]
- EC50 [1]: 23.4 µM
- CC50 [1]: 23.4 µM
- ROS increase, % Hepatocytes [2]: 117%
- H2O2 generation, NADH/NADPH dehydrogenase - [3]: 1.5 µM
- H2O2 generation, NADH/NADPH dehydrogenase + [3]: 2.5 µM
- remaining activity at 30 µM [4]: 95%
- logD [5, 7]: 0

SMILES: CC(C)(C)NC1=C(Cl)C(=O)c2ccccc2C1=O [compound 13]
- EC50 [1]: 7.2 µM
- CC50 [1]: 7.2 µM
- ROS increase, % Hepatocytes [2]: 123%
- H2O2 generation, NADH/NADPH dehydrogenase - [3]: 2.7 µM
- H2O2 generation, NADH/NADPH dehydrogenase + [3]: 4.3 µM
- remaining activity at 30 µM [4]: 100%
- logD [5, 7]: 0.52

SMILES: CCNC1=C(Cl)C(=O)c2ccccc2C1=O [compound 3]
- EC50 [1]: 59 µM
- CC50 [1]: 59 µM
- ROS increase, % Hepatocytes [2]: 115%
- H2O2 generation, NADH/NADPH dehydrogenase - [3]: 3.9 µM
- H2O2 generation, NADH/NADPH dehydrogenase + [3]: 6.3 µM
- remaining activity at 30 µM [4]: 100%
- logD [5, 7]: 1.01

SMILES: CCCC(=O)NC1=C(Cl)C(=O)c2ccccc2C1=O [compound 31]
- EC50 [1]: 10.4 µM
- CC50 [1]: 10.4 µM
- ROS increase, % Hepatocytes [2]: 228%
- H2O2 generation, NADH/NADPH dehydrogenase - [3]: 5.7 µM
- H2O2 generation, NADH/NADPH dehydrogenase + [3]: 9.0 µM
- inhibition of GAPDH [4]: almost completely inhibited GAPDH
- inhibition at 30 µM [4]: 95%
- remaining activity at 30 µM [4]: 5%
- logD [5, 7]: 2.03
